In patent publication US20070213311A1, “Modulators of 11-beta hydroxyl steroid dehydrogenase type 1, pharmaceutical compositions thereof, and methods of using the same” (priority 2006, published 2007):

What was measured:
[1] = target: T1, full-length human 11βHSD1 (Homo sapiens, UniProt P28845); assay: Enzymatic assay of 11βHSD1 (Scintillation Proximity Assay, clarified lysates of HEK-293 transfectants); type: biochemical; conditions: SPA, 25 nM 3H-cortisone, 400 μM NADPH, 37° C. for one hour
T1 construct: made in house; host or cells: HEK-293 transient transfectants; clarified lysate, not purified
T1 sequence (P28845 whole entry): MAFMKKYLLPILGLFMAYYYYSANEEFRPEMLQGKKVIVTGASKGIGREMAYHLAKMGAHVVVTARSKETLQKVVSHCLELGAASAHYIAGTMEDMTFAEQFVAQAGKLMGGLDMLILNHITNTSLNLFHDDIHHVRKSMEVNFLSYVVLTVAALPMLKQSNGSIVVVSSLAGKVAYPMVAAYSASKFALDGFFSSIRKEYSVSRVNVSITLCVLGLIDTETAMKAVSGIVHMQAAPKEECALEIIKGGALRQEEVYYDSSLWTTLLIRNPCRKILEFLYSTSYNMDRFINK
Protocol: Enzymatic Assay of 11βHSD1
All in vitro assays were performed with clarified lysates as the source of 11βHSD1 activity. HEK-293 transient transfectants expressing an epitope-tagged version of full-length human 11βHSD1 were harvested by centrifugation. Roughly 2×10^7 cells were resuspended in 40 mL of lysis buffer (25 mM Tris-HCl, pH 7.5, 0.1 M NaCl, 1 mM MgCl2 and 250 mM sucrose) and lysed in a microfluidizer. Lysates were clarified by centrifugation and the supernatants were aliquoted and frozen.
Inhibition of 11βHSD1 by test compounds was assessed in vitro by a Scintillation Proximity Assay (SPA). Dry test compounds were dissolved at 5 mM in DMSO. These were diluted in DMSO to suitable concentrations for the SPA assay. 0.8 μL of 2-fold serial dilutions of compounds were dotted on 384 well plates in DMSO such that 3 logs of compound concentration were covered. 20 μL of clarified lysate was added to each well. Reactions were initiated by addition of 20 μL of substrate-cofactor mix in assay buffer (25 mM Tris-HCl, pH 7.5, 0.1 M NaCl, 1 mM MgCl2) to final concentrations of 400 μM NADPH, 25 nM ^3H-cortisone and 0.007% Triton X-100. Plates were incubated at 37° C. for one hour. […] Quenched plates were incubated for a minimum of 30 minutes at RT prior to reading on a Topcount scintillation counter. […]

11βHSD1 in the eye = target: T2, 11βHSD1 in the eye (Homo sapiens, UniProt P28845); conditions: healthy volunteers, after seven days of carbenoxolone treatment; cited from earlier work
T2 construct: 11βHSD1 has been localized to NPE cells; host or cells: eye of healthy volunteers, in vivo
T2 sequence (P28845 whole entry): as above

SMILES | IC50 [1] | IOP was reduced by (11βHSD1 in the eye)
O=C1OC2(CCN(C(=O)C(O)c3ccc(Br)cc3F)C2)c2ccccc21 (centres unmarked) [Example 1, 1′-[(4-Bromo-2-fluorophenyl)(hydroxy)acetyl]-3H-spiro[2-benzofuran-1,3′-pyrrolidin]-3-one] | < 1000 nM | 
CC1(C)[C@@H](OC(=O)CCC(=O)O)CC[C@]2(C)[C@H]3C(=O)C=C4[C@@H]5C[C@@](C)(C(=O)O)CC[C@]5(C)CC[C@@]4(C)[C@]3(C)CC[C@@H]12 [carbenoxolone] |  | 18%
